# Earlier results in patent US20020182585A1, “Combination and method using EDTA, cystine, zinc and selenium for anti-thrombin effect and for anti-platelet aggregation and measurement of efficacy” (priority 2001, published 2002).
# Details: EDTA binding of the metal cation; adapted from Schwartzenbach, 1957
row,Structure (SMILES),Stability Constant Log K
1,[Cd+2] [Cd^++],16.5
2,[Co+2] [Co^++],16.3
3,[Hg+2] [Hg^++],21.8
4,[Ni+2] [Ni^++],18.0
5,[Pb+2] [Pb^++],18.5
